{"source": "patent US12636274B2", "about": "“Pharmaceutical compositions and methods for systemic treatment of solid tumors” (7 HILLS INTERESTS LLC, priority 2014, dated 2026)", "key": {"[1]": {"tested_on": "CD3+ CD8+ and CD3+ CD4+ tumor infiltrating T-cells", "test": "Tumor infiltrating lymphocytes (TILs) by FACS in CT26 tumors", "format": "in vivo, Mouse (Mus musculus)", "procedure": "On day 19 of treatment initiation tumors were isolated from study mice aseptically (n=5/group).\nTumor tissue was minced devoid of dead and necrotic tissue was mechanically disaggregated aseptically in RPMI medium without proteolytic enzymes in gentleMACS C-tubes using gentleMACS Octo Dissociator under the program 37C_m_TDK_1_30m (Miltenyi Biotec). Cell suspension was enriched for single cells by filtering the disaggregated mix through 70 μm cell strainer. Cells were pelleted at 300 g for 7 min at 4° C., washed twice with fresh complete media followed by FACS buffer containing PBS w/o calcium and magnesium (pH 7.4), 2% FBS and 0.05% sodium azide. Note: Proteolytic enzymes may chew up the antigen epitopes, therefore enzymatic dissociation is not performed.\nFive million total viable cells were used as input for staining with the following fluorochrome conjugated antibodies for 30 min on ice in dark. Unbound stain was removed by washing cells in FACS buffer twice. […]\nUnstained cells were used for setting up gates and focus single cells using INSPIRE acquisition software in Amnis FlowSight flow cytometer (Amnis Corporation, Seattle, WA) with 405, 488, 642 nm excitation lasers. […]\nBefore proceeding for FACS acquisition, we have recorded the total viable cell yield for each tumor sample. […] From the CD3 positive population gated out of viable 7AAD-ve population, the percentage of viable cells displaying CD3 positive signal was recorded using the statistics option in FACS software. […] Based on this information, yield per million cells was calculated and reported in results.\nIn addition, tumors were allowed to grow up to day 18 with continued Compound 1 dose, that decreased tumor growth resulting in a significant inhibition p<0.01 in the q.d. group compared to p<0.0001 in BID group. […] Upon non-enzymatic dissociation, cell viability was assessed and subjected to enumeration of CD3^+, CD4^+ or CD8^+ tumor infiltrating T-cells (detailed method, refer section 11)."}, "ICAM-1": {"tested_on": "ICAM-1", "test": "Cell migration across ICAM-1 membrane toward SDF-1", "format": "cell-based", "details": "FIG. 5; different concentrations; SDF-1 in bottom part", "procedure": "Referring now to FIG. 5, an apparatus for testing VCAM-1 and ICAM-1 cell migration, where the cells are initially placed in the top part of the apparatus including a member including VCAM-1 or ICAM-1, with the bottom part of the apparatus initially including SDF-1. Cell migration is then measured from top part to the bottom part for different concentration of CDPD 1, a compound of Formula (I) of VCAM-1 and ICAM-1 impregnated membrane."}}}
{"compound": "O=C(OCCOCCOCCOC(=O)N(Cc1cccs1)Cc1cccs1)N(Cc1cccs1)Cc1cccs1", "note": "[Compound 1, 3-oxo-1-(2-thienyl)-2-(2-thienylmethyl)-4,7,10-trioxa-2-azadodecan-12-yl bis(2-thienylmethyl)carbamate]", "values": [{"measurement": "CD3+ and CD4+ double positive cells in tumor", "setting": "[1]; Study 3, day 19, compared to vehicle control", "value": "decreased trend"}, {"measurement": "CD3+ and CD8+ double positive T-cells in tumor", "setting": "[1]; Study 3, day 19, compared to vehicle control, opposite to the decreased CD3+ CD4+ trend", "value": "trend was opposite"}, {"measurement": "ratio of CD8+/CD4+ T-cells in tumors", "setting": "[1]; single agent, in response to treatment", "value": "progressive increase"}, {"measurement": "cell migration, ICAM-1", "setting": "ICAM-1", "value": "migration enhancement"}]}
